# Test results taken from US11207277B2, “Methods of treating diseases associated with high-fat diet and vitamin a deficiency using retinoic acid receptor agonists” (Cornell University, priority 2013, dated 2021).
# Entries after “also recorded” stand apart in the source; their conditions may differ.
# Experiments:
# renal lipid accumulation = assay: Hematoxylin and eosin staining of kidney sections; assay type: in vivo; conditions: HF diet mice + AC261066 or CD1530; vs HF-vehicle
# Excerpt: (§1) WT male C57/BL6 male mice were maintained on either a standard laboratory chow-fed diet (CFD) with 13% kcal fat, (diet #5053, Lab Diet, Inc, St. Louis, Mo.) or a high fat, western style diet (HFD) with 60% kcals from fat, (diet #58126, Lab Diet, Inc., St. Louis, Mo.) for 4 months. One month after the start of the high fat diet treatment, the high fat diet group was further split into 2 groups for 3 months: i) high fat diet and the drinking water containing 1% DMSO; ii) high fat diet and the drinking water containing 1.5 mg/100 ml AC261066, a specific RARβ agonist. Then mice were sacrificed by cervical dislocation. Blood and various tissue samples were harvested.
# At sacrifice, fresh mouse liver samples were fixed in 4% formaldehyde solution for 24 hr and embedded in paraffin blocks. Kidney paraffin sections were cut 5 microns thick and mounted on glass slides and stained with hematoxylin and eosin (H and E) using standard protocols.
# [1] = system: hepatocyte lipid accumulation; assay: Hematoxylin and eosin staining of liver sections (hepatic steatosis); assay type: in vivo; conditions: HF diet mice 4 months + AC261066 or CD1530; vs HF-vehicle
# Excerpt: as §1
# At sacrifice, fresh mouse liver samples were fixed in 4% formaldehyde solution for 24 hr and embedded in paraffin blocks. Liver paraffin sections were cut 5 microns thick and mounted on glass slides and stained with hematoxylin and eosin (H and E) using standard protocols.
# LRAT = assay: Semi-quantitative PCR kidney, LRAT; assay type: in vivo; conditions: HF diet mice + AC261066
# Excerpt: as §1
# (§2) Total RNA was extracted from mouse tissues using TRIzol reagent (Life technologies) and (1 μg) was used to synthesize cDNA. cDNA synthesis was performed at 42° C. for 1 h in a final volume of 20 μl using qScript (Quanta, MD). Semi-quantitative PCR were performed Taq DNA polymerase (Invitrogen. CA). Three step PCR was run as follows: 94° C. for 30 s, 58-64° C. for 45 s for primer annealing and 72° C. for 1 min for primer extension. The number of cycles for each primer pair for amplification in the linear range was determined experimentally. PCR products were resolved on 2% agarose gels and visualized by staining with ehtidium bromide. Primers for gene expression used were as follows: […]
# TNF-α = assay: Semi-quantitative PCR liver, TNF-α; assay type: in vivo; conditions: HF diet mice + AC261066 or CD1530
# Excerpt: as §1
# as §2, with “(Invitrogen,” for “(Invitrogen.”, “resolved” for “resolved on”
# 4-hydroxynonenal (4-HNE) [2] = assay: 4-HNE staining of kidney sections; assay type: in vivo, mice; conditions: HF diet + AC261066 vs HF diet group
# Excerpt: as §1
# (§3) Paraffin-embedded sections (from two to four mice per group) were deparaffinized and rehydrated, and antigen retrieval was performed using an antigen unmasking solution (Vector Laboratories, H-3300). After quenching endogenous peroxidase with 3% H2O2, the tissue sections were blocked with the blocking reagent (from the M.O.M. kit from Vector Laboratories). Then, tissue sections were incubated with a 4-HNE antibody (1:400; mouse monoclonal antibody; Abcam, ab48506) overnight at 4° C. The sections were then incubated with secondary antibodies (1:200, anti-mouse IgG from the M.O.M kit). As a negative control, sections were stained without incubation with primary antibodies. […]
# alpha-SMA = assay: Semi-quantitative PCR liver, alpha-SMA; assay type: in vivo; conditions: HF diet mice + AC261066 or CD1530; vs HF-vehicle
# Excerpt: as §1
# as §2, with “(Invitrogen,” for “(Invitrogen.”, “resolved” for “resolved on”
# α-SMA [3] = assay: α-SMA immunofluorescence of liver sections (hepatic stellate cell activation); assay type: in vivo; conditions: HF diet mice + AC261066 or CD1530, vs HF-vehicle
# Excerpt: as §1
# Staining. Fresh mouse liver samples were embedded in optimal cutting temperature (OCT) medium and immediately frozen to −70 centigrade. Cryosections were then fixed in 4% formaldehyde for 1 hr at room temp. Slides were then rinsed three times in deionized water (dH2O) for 30 s, followed by treatment with 0.5% Triton X-100 in PBS for 5 min. Sections were then washed three times with PBS for 5 min. Samples were with incubated 2% bovine serum albumin (BSA) for 30 min at room temperature to block for unspecific antibody binding. Following blocking, sections were washed three times in PBS and incubated with mouse monoclonal antibody against α-SMA (1:500) (Dako, Inc) for 24 h at 4° C. After 24 h sections were washed three times in PB and incubated with Alexa-Flour-488 anti-mouse secondary anti-body (1:500) (Invitrogen, Inc) for 30 min at room temperature. Sections were then washed three times in PBS and incubated with working strength oil-red O solution for 30 minutes at room temperature. Sections were then rinsed for 30 minutes under running tap water and cover-slipped with Vectashield hard mount plus DAPI (Vector Labs, Inc).
# 4-hydroxynonenal (4-HNE) [4] = assay: 4-HNE staining of liver sections; assay type: in vivo, mice; conditions: HF diet + AC261066 vs HF diet group
# Excerpt: as §1, §3
# hepatic lipids = assay: Oil red O staining of liver sections; assay type: in vivo; conditions: HF diet mice + AC261066 or CD1530; vs HF-vehicle
# Excerpt: as §1
# (§4) Staining. Fresh mouse liver samples were embedded in optimal cutting temperature (OCT) medium and immediately frozen to −70 centigrade. Cryosections were then fixed in 4% formaldehyde for 1 hr at room temp. Slides were then rinsed three times in deionized water (dH2O) for 30 s, followed by treatment with 0.5% Triton X-100 in PBS for 5 min. Sections were then washed three times with PBS for 5 min. Samples were with incubated 2% bovine serum albumin (BSA) for 30 min at room temperature to block for unspecific antibody binding. Following blocking, sections were washed three times in PBS and incubated with mouse monoclonal antibody against α-SMA (1:500) (Dako, Inc) for 24 h at 4° C. […]
# renal lipids = assay: Oil red O staining of kidney sections; assay type: in vivo; conditions: HF diet mice + AC261066 vs HF vehicle
# MCP-1 = assay: Semi-quantitative PCR liver, MCP-1; assay type: in vivo; conditions: HF diet mice + AC261066 or CD1530
# Excerpt: as §1
# as §2, with “(Invitrogen,” for “(Invitrogen.”, “resolved” for “resolved on”
# α-SMA [5] = assay: α-SMA immunofluorescence of kidney sections; assay type: in vivo; conditions: HF diet mice + AC261066
# Excerpt: as §1
# as §4, with “Fresh” for “Staining. Fresh”, “kidney” for “liver”
smiles,measurement,setting,value
CCCCOCCOc1nc(-c2ccc(C(=O)O)c(F)c2)sc1C [AC261066],renal lipid infiltration/accumulation (H and E),renal lipid accumulation,diminished renal lipid accumulation; also recorded: markedly decreased renal lipid infiltration
same,hepatocyte lipid infiltration / hepatic steatosis (H and E),[1],diminished hepatic steatosis; also recorded: prevent hepatic steatosis; also recorded: marked decreased hepatocyte lipid infiltration
same,LRAT mRNA levels in kidney,LRAT,restores RAR beta and LRAT mRNA levels
same,mRNA levels of TNF-α in liver,TNF-α,significantly diminish
same,4-HNE levels (oxidative stress) in kidneys,4-hydroxynonenal (4-HNE) [2],reduces oxidative stress (ROS); also recorded: lower 4-HNE levels than those from the high fat diet group
same,hepatic mRNA levels of alpha-SMA,alpha-SMA,also decreased
same,α-SMA positive staining in liver (HSC activation),α-SMA [3],diminished activation of hepatic stellate cells; also recorded: decreased expression of α-SMA; also recorded: decreased intensity and regions of α-SMA positive staining
same,α-SMA positive staining in liver (HSC activation),α-SMA [3]; listed as AC261011,α-SMA protein is decreased
same,4-HNE levels (oxidative stress) in liver,4-hydroxynonenal (4-HNE) [4],reduces oxidative stress and ROS; also recorded: lower 4-HNE levels than those from the high fat diet group
same,hepatic lipid accumulation (oil red O),hepatic lipids,marked diminished hepatic lipid accumulation
same,kidney lipid accumulation (oil red O),renal lipids,comparably less oil red o positive areas
same,mRNA levels of MCP-1 in liver,MCP-1,decreases levels of inflammatory proteins MCP-1 and TNF alpha
same,α-SMA positive areas in kidney,α-SMA [5],diminished expression of the fibrogenic protein alpha-SMA; also recorded: not observed
